Peptide text beside a SMILES is read from it. * marks the point of attachment. For = O=C*
Assays:
BALB/c mice = conditions: mouse, in vivo
in vivo = conditions: mouse
Description: The HK-X/OVA group of animals received HK-X dosage of 0.4 mg/Kg body weight (50 ug per 20 gm body weight per day) while the saline group received the same dosage of HK-X without OVA. […] Therefore, to maintain the plasma levels during the course of the allergen challenge, these mice received additional HK-X doses intranasally immediately before OVA challenge.

[1] = test system: murine model of allergen-induced chronic asthma subjected to repeated allergic challenge (Balb/C mice); conditions: mouse, in vivo
Description: This example reports the results of tests wherein mice having induced chronic asthma and having been treated in accord with the present invention are subsequently further challenged intranasally (“IN”) with OVA. Materials were the same as in Example 1. Balb/C mice were repeatedly immunized with OVA over a six month period as in Example 1. Thereafter, the mice were treated with 50 μg of HKX per dose intranasally for eight doses over a 16 day period, as in example 1. Then, a further regimen administered a 50 μg dose of HK-X 15-30 minutes prior to intranasal OVA challenge. This regimen was repeated for a total of three days. On the day after the last treatment the mice were sacrificed. HK-X was prepared in the same manner as in Example 1. […] The trachea and left lung (upper and lower lobes) were collected and fixed in 10% formalin at 20° C. for 15 hr. After embedding in paraffin, the tissues were cut into 5 μm sections. Eosinophils were stained in the lung tissue with Modified Discombe's Solution. […] Occlusion of the airway diameter by mucus was assessed on a semiquantitative scale ranging from 0 to 5+. For each mouse, individuals blinded to the protocol design assessed 10 airway sections randomly distributed throughout the left lung for mucus occlusion by morphometric analysis. […]

[2] = test system: murine model of allergen-induced chronic asthma (OVA immunized BALB/c mice); conditions: mouse, in vivo
Description: The chronic murine model of asthma was used to test the effects of f-Met-Leu-Phe-Phe (HK-X) on persistent asthma. This murine system is a model of chronic asthma where there is enormous infiltration of inflammatory cells in association with outer boundaries of the airway basal lamina. An immunization period of five (5) months during which mice were subjected to an initial immunization procedure during the first month followed by weekly intranasal challenges with OVA established a condition of persistent asthma in the mice. […] Immunized mice were treated with HK-X eight times over a sixteen day period (i.e., every other day). […]
Airway Plug scores—by using a scoring system from + to ++++, the severity of mucus secretion into medium and large-sized airways could be measured according to the previous report (Henderson et al., J. Exp. Medicine, vol. 1-84, pp. 1483-94, Oct. 1996).
Fraction of Epithelial Cells Containing Mucous Granules—was evaluated by randomly counting the number of epithelial cells containing mucus out of 100 epithelial cells in medium to large airways (600 μm to 1,000 μm diameters). A total of 10 fields were counted in different lung lobes and the mean score was tabulated. […]
Numbers of various cell types—eosinophils and neutrophils were quantified by counting the numbers per high power field (40×) in an area of 2,200 u^2 in association with airways. […]

Structure (SMILES): CSCC[C@H](NC=O)C(=O)N[C@@H](CC(C)C)C(=O)N[C@@H](Cc1ccccc1)C(=O)N[C@@H](Cc1ccccc1)C(=O)O [HK-X, f-Met-Leu-Phe-Phe] (For-MLFF-OH; C-terminus assumed)
- adverse reactions or signs of sickness (BALB/c mice): No adverse reactions or signs of sickness were observed
- half-life (in vivo): < 30 min
- number of eosinophils in the lung tissues [1]: 0.75±0.18 cells per 2,200 μm^2
- pulmonary tissue of control mice administered HK-X in saline [1]: free of inflammatory cells and fibrotic collagen deposits
- pulmonary tissue of control mice administered HK-X in saline [2]: free of inflammatory cells and fibrotic collagen deposits

Source: patent publication US20020072499A1, “Treatment with small peptides to effect antifibrotic activity” (Histatek, Inc., priority 1999, published 2002)
